From US11180504B2 (ORCHID PHARMA LTD., priority 2016, dated 2021)
In brackets after ≈: the same amount, converted by molar mass.

What was measured:
[1] = test system: extended spectrum β lactamase (ESBL) SHV18 producing Klebsiella pneumoniae; test: MIC by broth micro-dilution (CLSI), ESBL SHV18 producing K. pneumoniae; type: cell-based; conditions: Klebsiella pneumoniae, ATCC700603, 22 h, ESBL +ve (SHV-18) K. pneumoniae ATCC700603; read-out: MIC
[2] = test system: carbapenem sensitive Pseudomonas aeruginosa; test: MIC by broth micro-dilution (CLSI), carbapenem sensitive P. aeruginosa; type: cell-based; conditions: Pseudomonas aeruginosa, ATCC27853, Meropenem susceptible P. aeruginosa ATCC27853; read-out: MIC
[3] = test system: carbapenem sensitive Escherichia coli; test: MIC by broth micro-dilution (CLSI), carbapenem sensitive E. coli; type: cell-based; conditions: Escherichia coli, ATCC25922, ESBL −ve E. coli ATCC25922; read-out: MIC
[4] = test system: methicillin-sensitive Staphylococcus aureus; test: MIC by broth micro-dilution (CLSI), methicillin-sensitive S. aureus; type: cell-based; conditions: Staphylococcus aureus, ATCC 29213 / MSSA, MSSA S. aureus ATCC29213; read-out: MIC
[5] = test system: carbapenemase producing K. pneumoniae; test: MIC by broth micro-dilution (CLSI), carbapenemase producing K. pneumoniae; type: cell-based, Klebsiella pneumoniae; conditions: Klebsiella pneumoniae, ATCCBAA1705, KPC-2 K. pneumoniae ATCC BAA-1705; read-out: MIC

| Structure (SMILES) | MIC [1] | MIC [2] | MIC [3] | MIC [4] | MIC [5] |
| --- | --- | --- | --- | --- | --- |
| C[C@@H](NC(=O)C(F)F)[C@H]1C(=O)N2C(C(=O)O)=C(S[C@@H]3CN[C@H](C(=O)N4CCC[C@H](N)C4)C3)[C@H](C)[C@H]12 [Example 122] | 4 µg/mL (≈ 7.76 µM) | 16 µg/mL (≈ 31 µM) | 1 µg/mL (≈ 1.94 µM) | 1 µg/mL (≈ 1.94 µM) | 4 µg/mL (≈ 7.76 µM) |
| COC(=O)N[C@H]1CCN(C(=O)[C@@H]2C[C@H](SC3=C(C(=O)O)N4C(=O)[C@H]([C@@H](C)NC(=O)C(F)F)[C@H]4[C@H]3C)CN2)C1 [Example 123] | 2 µg/mL (≈ 3.57 µM) | 64 µg/mL (≈ 114 µM) | 0.5 µg/mL (≈ 0.894 µM) | 2 µg/mL (≈ 3.57 µM) | 4 µg/mL (≈ 7.15 µM) |
| C[C@@H](NC(=O)C(F)F)[C@H]1C(=O)N2C(C(=O)O)=C(S[C@@H]3CN[C@H](C(=O)N4CC[C@@H](N)C4)C3)[C@H](C)[C@H]12 [Example 124] | 4 µg/mL (≈ 7.98 µM) | 4 µg/mL (≈ 7.98 µM) | 1 µg/mL (≈ 1.99 µM) | 2 µg/mL (≈ 3.99 µM) | 4 µg/mL (≈ 7.98 µM) |
| C[C@@H](NC(=O)C(F)F)[C@H]1C(=O)N2C(C(=O)O)=C(S[C@@H]3CN[C@H](C(=O)N4CCO[C@H](CN)C4)C3)[C@H](C)[C@H]12 [Example 126] | 8 µg/mL (≈ 15 µM) | 16 µg/mL (≈ 30.1 µM) | 2 µg/mL (≈ 3.76 µM) | 2 µg/mL (≈ 3.76 µM) | 8 µg/mL (≈ 15 µM) |
| C[C@@H](NC(=O)C(F)F)[C@H]1C(=O)N2C(C(=O)O)=C(SC3CN[C@H](C(=O)N4CCO[C@@H](CN)C4)C3)[C@H](C)[C@H]12 (stereo partly drawn) [Example 127] | 8 µg/mL (≈ 15 µM) | 32 µg/mL (≈ 60.2 µM) | 2 µg/mL (≈ 3.76 µM) | 2 µg/mL (≈ 3.76 µM) | 16 µg/mL (≈ 30.1 µM) |
| C[C@@H](NC(=O)CC#N)[C@H]1C(=O)N2C(C(=O)O)=C(S[C@@H]3CN[C@H](C(=O)N(C)C)C3)[C@H](C)[C@H]12 [Example 128] | 8 µg/mL (≈ 17.8 µM) | 64 µg/mL (≈ 142 µM) | 4 µg/mL (≈ 8.9 µM) | 16 µg/mL (≈ 35.6 µM) | 8 µg/mL (≈ 17.8 µM) |
| CNCC(=O)N[C@H](C)[C@H]1C(=O)N2C(C(=O)O)=C(S[C@@H]3CN[C@H](C(=O)N4CC[C@H](N)C4)C3)[C@H](C)[C@H]12 [Example 129] | 32 µg/mL (≈ 64.7 µM) | 8 µg/mL (≈ 16.2 µM) | 4 µg/mL (≈ 8.09 µM) | 32 µg/mL (≈ 64.7 µM) | 8 µg/mL (≈ 16.2 µM) |
| C[C@@H](NC(=O)C(F)F)[C@H]1C(=O)N2C(C(=O)O)=C(S[C@@H]3CN[C@H](C(=O)N[C@@H]4CCNC4)C3)[C@H](C)[C@H]12 [Example 130] | 8 µg/mL (≈ 16 µM) | 32 µg/mL (≈ 63.8 µM) | 1 µg/mL (≈ 1.99 µM) | 2 µg/mL (≈ 3.99 µM) | 4 µg/mL (≈ 7.98 µM) |
| C[C@@H](NC(=O)C(F)F)[C@H]1C(=O)N2C(C(=O)O)=C(S[C@@H]3CN[C@H](C(=O)N4CC(N)C4)C3)[C@H](C)[C@H]12 [Example 131] | 2 µg/mL (≈ 4.1 µM) | 16 µg/mL (≈ 32.8 µM) | 0.5 µg/mL (≈ 1.03 µM) | 4 µg/mL (≈ 8.2 µM) | 8 µg/mL (≈ 16.4 µM) |
| C[C@@H](NC(=O)C(F)F)[C@H]1C(=O)N2C(C(=O)O)=C(S[C@@H]3CN[C@H](C(=O)N4CCC(N)CC4)C3)[C@H](C)[C@H]12 [Example 132] | 4 µg/mL (≈ 7.76 µM) | 4 µg/mL (≈ 7.76 µM) | 1 µg/mL (≈ 1.94 µM) | 2 µg/mL (≈ 3.88 µM) | 4 µg/mL (≈ 7.76 µM) |
| C[C@@H](NC(=O)C(F)F)[C@H]1C(=O)N2C(C(=O)O)=C(S[C@@H]3CN[C@H](C(=O)N4CC[C@H](NS(=O)(=O)CCN)C4)C3)[C@H](C)[C@H]12 [Example 133] | 4 µg/mL (≈ 6.57 µM) | 8 µg/mL (≈ 13.1 µM) | 1 µg/mL (≈ 1.64 µM) | 4 µg/mL (≈ 6.57 µM) | 8 µg/mL (≈ 13.1 µM) |
| C[C@@H](NC(=O)C(F)F)[C@H]1C(=O)N2C(C(=O)O)=C(S[C@@H]3CN[C@H](C(=O)N(C)[C@H]4CCNC4)C3)[C@H](C)[C@H]12 [Example 134] | 4 µg/mL (≈ 7.76 µM) | 16 µg/mL (≈ 31 µM) | 1 µg/mL (≈ 1.94 µM) | 2 µg/mL (≈ 3.88 µM) | 4 µg/mL (≈ 7.76 µM) |
| C[C@@H]1CN(C(=O)[C@@H]2C[C@H](SC3=C(C(=O)O)N4C(=O)[C@H]([C@@H](C)NC(=O)C(F)F)[C@H]4[C@H]3C)CN2)CCN1 [Example 135] | 4 µg/mL (≈ 7.76 µM) | 8 µg/mL (≈ 15.5 µM) | 1 µg/mL (≈ 1.94 µM) | 2 µg/mL (≈ 3.88 µM) | 4 µg/mL (≈ 7.76 µM) |
| C[C@@H](NS(=O)(=O)CCN)[C@H]1C(=O)N2C(C(=O)O)=C(S[C@@H]3CN[C@H](C(=O)N(C)C)C3)[C@H](C)[C@H]12 [Example 136] | 16 µg/mL (≈ 32.7 µM) | 32 µg/mL (≈ 65.4 µM) | 4 µg/mL (≈ 8.17 µM) | > 128 µg/mL | 16 µg/mL (≈ 32.7 µM) |
| COc1coc(CNC(=O)[C@@H]2C[C@H](SC3=C(C(=O)O)N4C(=O)[C@H]([C@@H](C)NC(=O)C(F)F)[C@H]4[C@H]3C)CN2)cc1=O [Example 137] | 8 µg/mL (≈ 14 µM) | > 128 µg/mL | 1 µg/mL (≈ 1.75 µM) | 4 µg/mL (≈ 7.01 µM) | 8 µg/mL (≈ 14 µM) |
| C[C@@H](NC(=O)C(F)(F)CN)[C@H]1C(=O)N2C(C(=O)O)=C(S[C@@H]3CN[C@H](C(=O)N(C)C)C3)[C@H](C)[C@H]12 [Example 138] | 32 µg/mL (≈ 65.4 µM) | > 128 µg/mL | 4 µg/mL (≈ 8.17 µM) | 32 µg/mL (≈ 65.4 µM) | 64 µg/mL (≈ 131 µM) |
| CCCNCC(=O)N[C@H](C)[C@H]1C(=O)N2C(C(=O)O)=C(S[C@@H]3CN[C@H](C(=O)N(C)C)C3)[C@H](C)C12 (stereo partly drawn) [Example 139] | 4 µg/mL (≈ 8.31 µM) | 32 µg/mL (≈ 66.4 µM) | 1 µg/mL (≈ 2.08 µM) | 32 µg/mL (≈ 66.4 µM) | 4 µg/mL (≈ 8.31 µM) |
| C[C@H]1C(S[C@@H]2CN[C@H](C(=O)N(CCO)CCO)C2)=C(C(=O)O)N2C(=O)[C@H]([C@@H](C)NC(=O)C(F)F)C12 (stereo partly drawn) [Example 140] | 1 µg/mL (≈ 1.92 µM) | 32 µg/mL (≈ 61.5 µM) | 0.5 µg/mL (≈ 0.961 µM) | 2 µg/mL (≈ 3.84 µM) | 2 µg/mL (≈ 3.84 µM) |
| CNC(=O)[C@@H]1C[C@H](N)CN1C(=O)[C@@H]1C[C@H](SC2=C(C(=O)O)N3C(=O)[C@H]([C@@H](C)NC(=O)C(F)F)[C@H]3[C@H]2C)CN1 [Example 141] | 4 to 8 µg/mL (≈ 7.16 to 14.3 µM) | 64 µg/mL (≈ 115 µM) | 1 µg/mL (≈ 1.79 µM) | 4 to 8 µg/mL (≈ 7.16 to 14.3 µM) | 4 to 8 µg/mL (≈ 7.16 to 14.3 µM) |
| C[C@@H](NC(=O)C(F)F)[C@H]1C(=O)N2C(C(=O)O)=C(S[C@@H]3CN[C@H](C(=O)N4C[C@@H](N)C[C@H]4C(=O)N(C)C)C3)[C@H](C)[C@H]12 [Example 142] | 8 µg/mL (≈ 14 µM) | 16 to 32 µg/mL (≈ 27.9 to 55.9 µM) | 1 µg/mL (≈ 1.75 µM) | 4 to 8 µg/mL (≈ 6.99 to 14 µM) | 8 µg/mL (≈ 14 µM) |
| C[C@@H](NC(=O)C(F)(F)CO)[C@H]1C(=O)N2C(C(=O)O)=C(S[C@@H]3CN[C@H](C(=O)N(C)C)C3)[C@H](C)[C@H]12 [Example 143] | 8 µg/mL (≈ 16.3 µM) | 32 to 64 µg/mL (≈ 65.2 to 130 µM) | 1 µg/mL (≈ 2.04 µM) | 2 µg/mL (≈ 4.08 µM) | 8 µg/mL (≈ 16.3 µM) |
| C[C@@H](NC(=O)C(F)F)[C@H]1C(=O)N2C(C(=O)O)=C(S[C@@H]3CN[C@H](CN4CCNCC4)C3)[C@H](C)[C@H]12 [Example 145] | 8 to 16 µg/mL (≈ 16.4 to 32.8 µM) | 32 µg/mL (≈ 65.6 µM) | 2 µg/mL (≈ 4.1 µM) | 0.5 µg/mL (≈ 1.03 µM) | 8 µg/mL (≈ 16.4 µM) |
| C[C@@H](NC(=O)C(F)F)[C@H]1C(=O)N2C(C(=O)O)=C(S[C@@H]3CN[C@H](C(=O)N4CC[C@H](NC(=O)C(F)(F)CN)C4)C3)[C@H](C)[C@H]12 [Example 147] | 2 µg/mL (≈ 3.29 µM) | 64 to 128 µg/mL (≈ 105 to 210 µM) | 1 µg/mL (≈ 1.64 µM) | 2 µg/mL (≈ 3.29 µM) | 4 to 8 µg/mL (≈ 6.57 to 13.1 µM) |
| C[C@@H](NC(=O)C(F)F)[C@H]1C(=O)N2C(C(=O)O)=C(S[C@@H]3CN[C@H](C(=O)N4CC[C@H](ON)C4)C3)[C@H](C)[C@H]12 [Example 148] | 1 µg/mL (≈ 1.93 µM) | 32 to 64 µg/mL (≈ 61.8 to 124 µM) | 0.5 µg/mL (≈ 0.966 µM) | 1 to 2 µg/mL (≈ 1.93 to 3.86 µM) | 2 to 4 µg/mL (≈ 3.86 to 7.73 µM) |
